Reference: US12636385B2, “Selective ligands for tau aggregates” (Sentonix, Inc., priority 2018, dated 2026)
Like-named read-outs stand apart in the source and are kept apart here.

Columns and labels:
[1] = Rat brain cassette exposure study; format: in vivo, Sprague Dawley rat; settings: intravenous cassette dosing; for half-life: male, Sprague Dawley, rat, brain, read-out: calculated half-life (t1/2) in rat brain tissue
Method: The in vivo pharmacokinetic characteristics of the example compounds of the invention were compared directly with the known beta-amyloid specific ligand AZD2184 (Johnson, A. E., et al, Journal of Neurochemistry (2009), Vol. 108, pages 1177-1186). Rat brain exposure to three compounds of the invention and AZD2184 was measured by intravenous cassette dosing three test compound: Example Compound 43, Example Compound 47 and Example Compound 48; and AZD2184 (Novandi Chemistry) (concentration of 0.25 μmol/mL each) using the procedure previously described in Johnson, A. E., et al, Journal of Neurochemistry (2009), Vol. 108, pages 1177-1186. 6 male Sprague Dawley rat were used in the experiments, three rats per time point (2 min and 30 min).

[2] = target: T1, MAO-A (Rattus norvegicus, UniProt P21396); test: MAO-A binding assay ([^3H]-Ro41-1049); settings: tested at 1 μM, rat cerebral cortex; for inhibition at 1 µM: read-out: % inhibition of control specific binding, MAO-A binding assay
T1 construct: tissue EuroFins Pharma Discovery Service (assay service); host or cells: rat cerebral cortex (own knowledge of the vendor's assay)
T1 sequence (P21396 1-526): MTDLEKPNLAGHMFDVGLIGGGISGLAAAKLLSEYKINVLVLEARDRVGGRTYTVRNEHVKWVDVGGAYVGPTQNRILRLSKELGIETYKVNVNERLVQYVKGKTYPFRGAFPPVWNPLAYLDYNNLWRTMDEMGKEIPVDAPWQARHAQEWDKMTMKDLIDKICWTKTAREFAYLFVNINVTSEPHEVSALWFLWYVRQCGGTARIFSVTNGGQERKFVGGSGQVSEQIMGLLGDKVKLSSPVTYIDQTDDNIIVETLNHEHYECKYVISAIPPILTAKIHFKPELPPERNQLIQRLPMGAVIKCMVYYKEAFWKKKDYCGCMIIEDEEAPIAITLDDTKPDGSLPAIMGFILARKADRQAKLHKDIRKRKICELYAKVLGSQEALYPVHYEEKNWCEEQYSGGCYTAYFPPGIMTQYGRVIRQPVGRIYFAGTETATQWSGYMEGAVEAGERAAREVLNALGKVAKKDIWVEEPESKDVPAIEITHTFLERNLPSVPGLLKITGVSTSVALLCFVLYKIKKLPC
Method: A monoamine oxidase inhibitor (MAO) binding assay for MAO-A was performed (EuroFins Pharma Discovery Service) for Example Compound 43, Example Compound 48 and the known tau ligand THK-5117. The three compounds were tested at 1 μM. Compound binding was calculated as a % inhibition of the binding of the selective MAO-A inhibitor [^3H]-Ro41-1049 for MAO-A binding.
The MAO-A binding assay was carried our as described in Cesura, A. M., et al, Mol. Phamacol. (1990), Vol 37, pages 358-366, using the materials and conditions described in Table 3.
The results of the MAO-A binding assay are expressed as a percent inhibition of control specific binding obtained in the presence of the test compounds: […]

[3] = target: T2, MAO-A (Homo sapiens, UniProt P21397); test: MAO-A enzyme and uptake assay (kynuramine); format: biochemical; settings: tested at 1 μM, human placenta; for inhibition at 1 µM: read-out: % inhibition of control enzyme activity, MAO-A
T2 construct: EuroFins Pharma Discovery Service (assay service)
T2 sequence (P21397 1-527): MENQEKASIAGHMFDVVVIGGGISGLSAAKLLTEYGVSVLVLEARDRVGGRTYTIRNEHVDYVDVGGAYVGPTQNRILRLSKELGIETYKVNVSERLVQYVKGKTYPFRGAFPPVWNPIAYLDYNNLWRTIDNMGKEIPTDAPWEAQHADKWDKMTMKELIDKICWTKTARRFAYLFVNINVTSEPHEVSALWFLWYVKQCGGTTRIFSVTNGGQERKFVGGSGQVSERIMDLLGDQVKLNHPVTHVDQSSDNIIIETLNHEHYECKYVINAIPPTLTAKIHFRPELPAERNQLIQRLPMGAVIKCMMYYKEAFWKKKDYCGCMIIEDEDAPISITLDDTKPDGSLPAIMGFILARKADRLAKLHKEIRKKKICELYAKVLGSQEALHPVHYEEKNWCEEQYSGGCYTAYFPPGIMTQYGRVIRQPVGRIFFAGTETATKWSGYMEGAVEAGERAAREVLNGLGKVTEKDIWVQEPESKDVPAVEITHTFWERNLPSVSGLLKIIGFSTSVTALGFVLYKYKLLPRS
Method: (§1) MAO enzyme and uptake assays were also performed (EuroFins Pharma Discovery Service) as described in Weyler, W., et al., J. Biol. Chem. (1985), Vol. 260, pages 13199-13207, using the materials and conditions described in Table 4; and as described in Tsugeno, U., et al., J Biochem. (1995), Vol. 118, pages 974-980, using the materials and conditions described in Table 5, for Example Compound 43, Example Compound 48 and the known tau ligand THK-5117. The three compounds were tested at 1 μM. Compound enzyme/uptake inhibition effect was calculated as a % inhibition of control enzyme activity.
(§2) The results of the enzyme and uptake assays are expressed as a percent inhibition of control specific activity obtained in the presence of the test compounds: […]

[4] = target: T3, MAO-B (Homo sapiens, UniProt P27338); test: MAO-B recombinant enzyme assay (D-Luciferin derivative); format: biochemical; settings: tested at 1 μM; for inhibition at 1 µM: read-out: % inhibition of control enzyme activity, MAO-B
T3 construct: EuroFins Pharma Discovery Service (assay service)
T3 sequence (P27338 1-520): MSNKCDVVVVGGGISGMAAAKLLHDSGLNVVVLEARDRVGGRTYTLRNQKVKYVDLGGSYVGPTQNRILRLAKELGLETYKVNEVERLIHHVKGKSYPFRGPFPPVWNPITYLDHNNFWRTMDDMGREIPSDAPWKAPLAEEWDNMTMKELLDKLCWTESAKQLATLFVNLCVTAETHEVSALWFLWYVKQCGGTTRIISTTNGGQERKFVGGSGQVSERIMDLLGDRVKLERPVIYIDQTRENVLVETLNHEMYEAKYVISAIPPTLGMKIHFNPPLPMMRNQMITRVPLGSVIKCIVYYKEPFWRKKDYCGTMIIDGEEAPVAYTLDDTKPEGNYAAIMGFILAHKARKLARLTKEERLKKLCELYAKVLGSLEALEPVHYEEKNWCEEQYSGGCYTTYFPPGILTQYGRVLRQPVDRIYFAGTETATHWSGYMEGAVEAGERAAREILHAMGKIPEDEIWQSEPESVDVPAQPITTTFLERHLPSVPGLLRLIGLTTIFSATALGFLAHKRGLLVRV
Method: as §1, §2

[5] = tested on: tau plaques; test: Autoradiography on brain sections from CBD and PSP patients; format: binding, human; settings: 3 nM radiotracer, with or without 1 μM unlabeled compound; compared with antibody AT8
Sequence of tau plaques (P10636 561-708 limits assumed): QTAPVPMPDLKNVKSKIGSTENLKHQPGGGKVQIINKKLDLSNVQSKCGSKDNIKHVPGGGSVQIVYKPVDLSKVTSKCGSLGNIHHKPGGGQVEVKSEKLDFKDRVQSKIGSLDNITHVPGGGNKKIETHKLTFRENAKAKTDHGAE
Method: To examine binding of the example compounds of the present invention to tau plaques in vitro, autoradiography was carried out on brain sections from corticobasal degeneration (CBD) and progressive supranuclear palsy (PSP) patients incubated with [^3H]-Example Compound 72 or [^3H]-Example Compound 48 in the presence or absence of unlabeled Example Compound […] (1 μM) or unlabeled Example Compound 48 (1 μM), respectively. The experiment was performed as previously described in Johnson, A. E., et al, Journal of Neurochemistry (2009), Vol. 108, pages 1177-1186, but using post mortem cortical samples from corticobasal degeneration (CBD) and progressive supranuclear palsy (PSP) patients instead of from Alzheimer's disease patients.
Briefly, brain sections from the cortical samples were incubated for 30 min at 22° C. in 50 mN Tris buffer (pH 7.4) together with 3 nM [^3H]-Example Compound 72 or 3 nM [^3H]-Example Compound 48 in the presence of absence of on unlabeled Example Compound 72 (1 μM) or unlabeled Example Compound 48 (1 μM), respectively. The sections were then washed (3×10 min) in Tris buffer (1° C.) followed by a rinse in deionized water (1° C.) and air-dried at 22° C. in front of a fan. Binding was then measured and analysed as described in Johnson, A. E., et al.
The tau pathology was confirmed on adjacent brain sections by immunohisto-chemistry (IHC) using Phospho-Tau (Ser202, Thr205) Monoclonal Antibody (AT8) as previously as described in Biernat, J., et al, EMBO J. (1992) Vol. 4, pages 1593-1597. AT8 was obtained from Thermo Fisher Scientific (Phospho-PHF-Tau, Thermo Ficher Scientific, Catalog No. MN1020, Stock cone: 0.2 mg/ml, Working solution: 1/100).

[6] = target: T4, 0N4R Tau fibrils (Homo sapiens, UniProt P10636); test: In vitro competitive binding to 0N4R tau fibrils in the presence of [^3H]-Example Compound 68 (FIG. 1)
T4 construct: made in house
T4 sequence (P10636 1-383 isoform P10636-6): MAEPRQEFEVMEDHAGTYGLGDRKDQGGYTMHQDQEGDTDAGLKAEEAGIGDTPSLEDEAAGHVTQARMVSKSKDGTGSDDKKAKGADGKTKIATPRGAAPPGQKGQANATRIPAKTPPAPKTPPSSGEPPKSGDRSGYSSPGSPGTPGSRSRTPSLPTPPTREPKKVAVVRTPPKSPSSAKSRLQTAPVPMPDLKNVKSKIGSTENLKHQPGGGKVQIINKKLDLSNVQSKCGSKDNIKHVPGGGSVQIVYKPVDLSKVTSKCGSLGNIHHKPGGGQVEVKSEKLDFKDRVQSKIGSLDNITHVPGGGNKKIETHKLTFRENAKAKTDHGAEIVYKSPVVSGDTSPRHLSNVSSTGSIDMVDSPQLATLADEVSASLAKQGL

[7] = literature value; cited from earlier work
[8] = cited from earlier work

In the case of `NC(=O)c1ccc2nc(-c3cnc(N4CCC(CCF)CC4)nc3)sc2c1` [Example Compound 43, 2-{2-[4-(2-Fluoroethyl)piperidin-1-yl]pyrimidin-5-yl}-1,3-benzothiazole-6-carboxamide], the half-life ([1]; samples at 2 min and 30 min) is reported as 379 min, the inhibition at 1 µM [2] is reported as less than 25% and the inhibition at 1 µM [3] is reported as less than 25%. For the same molecule, the inhibition at 1 µM [4] was less than 25%.
With `CNc1ccc(-c2ccc3cc(OCC(O)CF)ccc3n2)cc1` (stereo not drawn) [THK-5117, reference compound] the “% inhibition of control specific binding, MAO-A binding assay” value [2] was no more than 50%, the “% inhibition of control enzyme activity, MAO-A” value [3] was no more than 50% and the “% inhibition of control enzyme activity, MAO-B” value [4] was no more than 50%.
With “[^3H] labeled 2-(2-fluoro-6-{4-[hydroxymethyl]piperidin-1-yl}pyridin-3-yl)-1H-indol-5-ol [[^3H]-Example Compound 48]” the “radiotracer binding in CBD brain tissue” value [5] was “displaceable binding in CBD brain tissue that correlates with the tau-specific antibody AT8” and the “radiotracer binding in PSP brain tissue” value [5] was “displaceable binding in PSP brain tissue that correlates with the tau-specific antibody AT8”.
With `OCC1CCN(c2ccc(-c3cc4cc(O)ccc4[nH]3)c(F)n2)CC1` [Example Compound 48, 2-{2-Fluoro-6-[4-(hydroxymethyl)piperidin-1-yl]pyridin-3-yl}-1H-indol-5-ol] the “tau binding site shared (competition with [^3H]-Example Compound 68)” value [6] was “share the same binding site”, the “clearance from normal rat brain tissue” value ([1]; 2 min and 30 min) was “rapidly cleared” and the half-life ([1]; samples at 2 min and 30 min) was 8.21 min. The inhibition at 1 µM [2] was less than 25%, the inhibition at 1 µM [3] was less than 25% and the inhibition at 1 µM [4] was less than 25%.
In the case of `CNc1ccc(-c2nc3ccc(O)cc3s2)cn1` [AZD2184, reference compound], the “calculated half-life (t1/2) in rat brain tissue” value ([1]; samples at 2 min and 30 min) is given as 6.65 min and the “t1/2 reported in Table 3 of Johnson, A. E., et al” value [7] is given as 6.8 min.
With “[^3H] labeled (1-{5-[5-(2-Fluoroethoxy)-1H-indol-2-yl]pyrimidin-2-yl}piperidin-4-yl)methanol [[^3H]-Example Compound 72]” the “radiotracer binding in CBD brain tissue” value [5] was “displaceable binding in CBD brain tissue that correlate with tau-specific antibody AT8” and the “radiotracer binding in PSP brain tissue” value [5] was “displaceable binding in PSP brain tissue that correlate with tau-specific antibody AT8”.
For `CNc1ccc(/C=C/C=C/c2nc3ccc(O)cc3s2)cn1` [^11C-PBB3], the “radiochemical purity after exposure to fluorescent light” value ([8]; at 1 min after exposure) is given as 77% and the “radiochemical purity after exposure to fluorescent light” value ([8]; from 10 to 60 min) is given as “approximately 50%”.
